Results taken from patent US7196110B2, “N-substituted tricyclic 3-aminopyrazoles as inhibitors for the treatment of cell proliferative disorders” (Janssen Phamaceutica N.V., priority 2002, dated 2007).

Biological target: T1, PDGF-receptor beta enzyme comprising the tyrosine kinase domain (Homo sapiens, UniProt P09619)
T1 construct: from amino acid 545 to 1106 of GenBank Access NO: AAA36427
Test: Inhibition of PDGF-receptor kinase activity (cell-free, PLC1 peptide, 33P Flashplate)
Type: biochemical
Details: PDGF-R kinase activity; for inhibition at 10 µM: compound at 10 uM, read-out: Percent Inhibition @ 10 uM; for IC50: read-out: IC50
Method in brief: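 Recombinant kinase domain (aa 545–1106) phosphorylated a biotinylated PLC1 peptide with 5 μM ATP plus 33P-γ-ATP, in Tris pH 8, MgCl2, Na3VO4 and 1 mM DTT, for 60 min at 30 °C. Retained 33P was counted after washing. IC50 is the concentration halving activity versus no-inhibitor reactions.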

T1 sequence (P09619 545-1106): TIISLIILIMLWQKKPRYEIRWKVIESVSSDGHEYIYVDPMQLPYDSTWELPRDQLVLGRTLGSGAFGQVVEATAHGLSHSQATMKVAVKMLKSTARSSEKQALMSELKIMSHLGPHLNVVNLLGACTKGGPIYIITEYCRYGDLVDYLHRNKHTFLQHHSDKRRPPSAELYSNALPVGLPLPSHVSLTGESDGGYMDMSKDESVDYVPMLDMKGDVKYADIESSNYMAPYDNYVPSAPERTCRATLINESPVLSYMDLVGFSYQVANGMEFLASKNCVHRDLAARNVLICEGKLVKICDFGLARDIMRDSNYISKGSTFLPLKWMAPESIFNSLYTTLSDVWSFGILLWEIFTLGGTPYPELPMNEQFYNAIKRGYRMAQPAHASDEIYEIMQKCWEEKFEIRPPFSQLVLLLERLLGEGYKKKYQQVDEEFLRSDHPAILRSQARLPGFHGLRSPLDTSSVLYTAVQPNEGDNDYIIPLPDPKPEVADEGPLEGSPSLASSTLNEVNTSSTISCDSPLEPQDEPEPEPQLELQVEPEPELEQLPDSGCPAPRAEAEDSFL

Brc1ccc2c(c1)Cc1c-2n[nH]c1Nc1cccnc1 [Compound 152, (6-Bromo-2,4-dihydro-indeno[1,2-c]pyrazol-3-yl)-pyridin-3-yl-amine]
inhibition at 10 µM: 80% | IC50: 174 nM

Fc1ccc(F)c(Nc2[nH]nc3c2Cc2cc(Br)ccc2-3)c1 [Compound 153, (6-Bromo-2,4-dihydro-indeno[1,2-c]pyrazol-3-yl)-(2,5-difluoro-phenyl)-amine]
inhibition at 10 µM: 79% | IC50: 1030 nM

FC(F)(F)Oc1cccc(Nc2[nH]nc3c2Cc2cc(Br)ccc2-3)c1 [Compound 154, (6-Bromo-2,4-dihydro-indeno[1,2-c]pyrazol-3-yl)-(3-trifluoromethoxy-phenyl)-amine]
inhibition at 10 µM: 29% | IC50: 41600 nM

FC(F)(F)c1cccc(Nc2[nH]nc3c2Cc2cc(Br)ccc2-3)c1 [Compound 155, (6-Bromo-2,4-dihydro-indeno[1,2-c]pyrazol-3-yl)-(3-trifluoromethyl-phenyl)-amine]
inhibition at 10 µM: 53% | IC50: 8110 nM

Brc1ccc2c(c1)Cc1c-2n[nH]c1Nc1ccccc1 [Compound 158, (6-Bromo-2,4-dihydro-indeno[1,2-c]pyrazol-3-yl)-phenyl-amine]
inhibition at 10 µM: 87.5% | IC50: 186 nM

CN(C)CCCOc1ccc2c(c1)Cc1c-2n[nH]c1Nc1ccc(F)cc1 [Compound 159, [6-(3-Dimethylamino-propoxy)-2,4-dihydro-indeno[1,2-c]pyrazol-3-yl]-(4-fluoro-phenyl)-amine]
inhibition at 10 µM: 92.5% | IC50: 98.9 nM

CN(C)CCCOc1ccc2c(c1)Cc1c-2n[nH]c1Nc1cccnc1 [Compound 161, [6-(3-Dimethylamino-propoxy)-2,4-dihydro-indeno[1,2-c]pyrazol-3-yl]-pyridin-3-yl-amine]
inhibition at 10 µM: 84% | IC50: 382 nM

COc1ccc(OC)c(Nc2[nH]nc3c2Cc2cc(OCCCN(C)C)ccc2-3)c1 [Compound 162, (2,5-Dimethoxy-phenyl)-[6-(3-dimethylamino-propoxy)-2,4-dihydro-indeno[1,2-c]pyrazol-3-yl]-amine]
inhibition at 10 µM: 21.5% | IC50: 54900 nM

CN(C)CCCOc1ccc2c(c1)Cc1c-2n[nH]c1Nc1cc(F)ccc1F [Compound 163, (2,5-Difluoro-phenyl)-[6-(3-dimethylamino-propoxy)-2,4-dihydro-indeno[1,2-c]pyrazol-3-yl]-amine]
inhibition at 10 µM: 32% | IC50: 22700 nM

CN(C)CCCOc1ccc2c(c1)Cc1c-2n[nH]c1Nc1cccc(C(F)(F)F)c1 [Compound 165, [6-(3-Dimethylamino-propoxy)-2,4-dihydro-indeno[1,2-c]pyrazol-3-yl]-(3-trifluoromethyl-phenyl)-amine]
inhibition at 10 µM: 92.5% | IC50: 101 nM

COCCCOc1cc2c(cc1OC)-c1n[nH]c(Nc3ccc(F)c(Cl)c3)c1C2 [Compound 166, (3-Chloro-4-fluoro-phenyl)-[7-methoxy-6-(3-methoxy-propoxy)-2,4-dihydro-indeno[1,2-c]pyrazol-3-yl]-amine]
inhibition at 10 µM: 88% | IC50: 85 nM

CC(C)Oc1cc2c(cc1OC(C)C)-c1n[nH]c(Nc3ccc(F)c(Cl)c3)c1C2 [Compound 167, (3-Chloro-4-fluoro-phenyl)-(6,7-diisopropoxy-2,4-dihydro-indeno[1,2-c]pyrazol-3-yl)-amine]
inhibition at 10 µM: 92% | IC50: 511 nM

COc1cccc(Nc2[nH]nc3c2Cc2cc(OC(C)C)c(OC(C)C)cc2-3)c1 [Compound 168, (6,7-Diisopropoxy-2,4-dihydro-indeno[1,2-c]pyrazol-3-yl)-(3-methoxy-phenyl)-amine]
inhibition at 10 µM: 91% | IC50: 68.8 nM

CC(C)Oc1cc2c(cc1OC(C)C)-c1n[nH]c(Nc3cccc(F)c3)c1C2 [Compound 169, (6,7-Diisopropoxy-2,4-dihydro-indeno[1,2-c]pyrazol-3-yl)-(3-fluoro-phenyl)-amine]
inhibition at 10 µM: 89% | IC50: 36 nM

COc1ccc(Nc2[nH]nc3c2Cc2ccc(OC)cc2-3)cc1 [Compound 171, (7-Methoxy-2,4-dihydro-indeno[1,2-c]pyrazol-3-yl)-(4-methoxy-phenyl)-amine]
inhibition at 10 µM: 92.5% | IC50: 123 nM

COc1ccc2c(c1)-c1n[nH]c(Nc3cccnc3)c1C2 [Compound 173, (7-Methoxy-2,4-dihydro-indeno[1,2-c]pyrazol-3-yl)-pyridin-3-yl-amine]
inhibition at 10 µM: 87% | IC50: 215 nM

COc1ccc(OC)c(Nc2[nH]nc3c2Cc2ccc(OC)cc2-3)c1 [Compound 174, (2,5-Dimethoxy-phenyl)-(7-methoxy-2,4-dihydro-indeno[1,2-c]pyrazol-3-yl)-amine]
inhibition at 10 µM: 83% | IC50: 346 nM

COc1ccc(Nc2[nH]nc3c2Cc2ccc(OC)cc2-3)c(OC)c1 [Compound 175, (2,4-Dimethoxy-phenyl)-(7-methoxy-2,4-dihydro-indeno[1,2-c]pyrazol-3-yl)-amine]
inhibition at 10 µM: 71% | IC50: 3930 nM

COc1ccc2c(c1)-c1n[nH]c(Nc3cc(F)ccc3F)c1C2 [Compound 176, (2,5-Difluoro-phenyl)-(7-methoxy-2,4-dihydro-indeno[1,2-c]pyrazol-3-yl)-amine]
inhibition at 10 µM: 46.5% | IC50: 318 nM

COc1ccc2c(c1)-c1n[nH]c(Nc3ccc(OC(F)(F)F)cc3)c1C2 [Compound 177, (7-Methoxy-2,4-dihydro-indeno[1,2-c]pyrazol-3-yl)-(4-trifluoromethoxy-phenyl)-amine]
inhibition at 10 µM: 65.5% | IC50: 523 nM

COc1ccc2c(c1)-c1n[nH]c(Nc3ccc(C(F)(F)F)cc3)c1C2 [Compound 178, (7-Methoxy-2,4-dihydro-indeno[1,2-c]pyrazol-3-yl)-(4-trifluoromethyl-phenyl)-amine]
inhibition at 10 µM: 98.5% | IC50: 132 nM

COc1ccc(Nc2[nH]nc3c2Cc2ccc(C)cc2-3)cc1 [Compound 183, (4-Methoxy-phenyl)-(7-methyl-2,4-dihydro-indeno[1,2-c]pyrazol-3-yl)-amine]
inhibition at 10 µM: 53% | IC50: 545 nM

COc1ccc(OC)c(Nc2[nH]nc3c2Cc2ccc(C)cc2-3)c1 [Compound 184, (2,5-Dimethoxy-phenyl)-(7-methyl-2,4-dihydro-indeno[1,2-c]pyrazol-3-yl)-amine]
inhibition at 10 µM: 94% | IC50: 1100 nM

Cc1ccc2c(c1)-c1n[nH]c(Nc3ccc(OC(F)(F)F)cc3)c1C2 [Compound 186, (7-Methyl-2,4-dihydro-indeno[1,2-c]pyrazol-3-yl)-(4-trifluoromethoxy-phenyl)-amine]
inhibition at 10 µM: 78% | IC50: 414 nM

Cc1ccc2c(c1)-c1n[nH]c(Nc3cccc(C(F)(F)F)c3)c1C2 [Compound 187, (7-Methyl-2,4-dihydro-indeno[1,2-c]pyrazol-3-yl)-(3-trifluoromethyl-phenyl)-amine]
inhibition at 10 µM: 35%

COc1ccc(Nc2[nH]nc3c2Cc2cc(Cl)ccc2-3)cc1 [Compound 189, (6-Chloro-2,4-dihydro-indeno[1,2-c]pyrazol-3-yl)-(4-methoxy-phenyl)-amine]
inhibition at 10 µM: 92% | IC50: 199 nM

Fc1cccc(Nc2[nH]nc3c2Cc2cc(Cl)ccc2-3)c1 [Compound 191, (6-Chloro-2,4-dihydro-indeno[1,2-c]pyrazol-3-yl)-(3-fluoro-phenyl)-amine]
inhibition at 10 µM: 88% | IC50: 68.6 nM

Fc1ccc(F)c(Nc2[nH]nc3c2Cc2cc(Cl)ccc2-3)c1 [Compound 192, (6-Chloro-2,4-dihydro-indeno[1,2-c]pyrazol-3-yl)-(2,5-difluoro-phenyl)-amine]
inhibition at 10 µM: 67% | IC50: 103 nM

FC(F)(F)c1ccc(Nc2[nH]nc3c2Cc2cc(Cl)ccc2-3)cc1 [Compound 193, (6-Chloro-2,4-dihydro-indeno[1,2-c]pyrazol-3-yl)-(4-trifluoromethyl-phenyl)-amine]
inhibition at 10 µM: 49%

FC(F)(F)Oc1ccc(Nc2[nH]nc3c2Cc2cc(Cl)ccc2-3)cc1 [Compound 194, (6-Chloro-2,4-dihydro-indeno[1,2-c]pyrazol-3-yl)-(4-trifluoromethoxy-phenyl)-amine]
inhibition at 10 µM: 87% | IC50: 2610 nM

FC(F)(F)c1cc(Nc2[nH]nc3c2Cc2cc(Cl)ccc2-3)cc(C(F)(F)F)c1 [Compound 195, (3,5-Bis-trifluoromethyl-phenyl)-(6-chloro-2,4-dihydro-indeno[1,2-c]pyrazol-3-yl)-amine]
inhibition at 10 µM: 76% | IC50: 2280 nM

CN(C)c1ccc(Nc2[nH]nc3c2Cc2cc(Cl)ccc2-3)cc1 [Compound 196, N-(6-Chloro-2,4-dihydro-indeno[1,2-c]pyrazol-3-yl)-N′,N′-dimethyl-benzene-1,4-diamine]
inhibition at 10 µM: 70% | IC50: 1290 nM

Cc1cccc(Nc2[nH]nc3c2Cc2cc(Cl)ccc2-3)c1 [Compound 197, (6-Chloro-2,4-dihydro-indeno[1,2-c]pyrazol-3-yl)-m-tolyl-amine]
inhibition at 10 µM: 8%

Cc1ccc(Nc2[nH]nc3c2Cc2cc(Cl)ccc2-3)cc1 [Compound 198, (6-Chloro-2,4-dihydro-indeno[1,2-c]pyrazol-3-yl)-p-tolyl-amine]
inhibition at 10 µM: 72% | IC50: 138 nM

COc1cc2c(cc1OC)-c1n[nH]c(Nc3cc(C)cc(C)c3)c1C2 [Compound 206, (6,7-Dimethoxy-2,4-dihydro-indeno[1,2-c]pyrazol-3-yl)-(3,5-dimethyl-phenyl)-amine]
inhibition at 10 µM: 63% | IC50: 640 nM

CCOC(=O)c1cccc(Nc2[nH]nc3c2Cc2cc(OC)c(OC)cc2-3)c1 [Compound 210, 3-(6,7-Dimethoxy-2,4-dihydro-indeno[1,2-c]pyrazol-3-ylamino)-benzoic acid ethyl ester]
inhibition at 10 µM: 90% | IC50: 67.2 nM

COc1cc2c(cc1OC)-c1n[nH]c(Nc3cccc(SC(F)(F)F)c3)c1C2 [Compound 211, (6,7-Dimethoxy-2,4-dihydro-indeno[1,2-c]pyrazol-3-yl)-(3-trifluoromethylsulfanyl-phenyl)-amine]
inhibition at 10 µM: 87% | IC50: 50 nM
